Positions of bridges follow the written chain, without caps; N, C: chain ends. Non-standard residues stand in square brackets, D forms with d. Residues, ends and D or L forms follow the SMILES beside them. *: point of attachment. X1 = NC[C@@H](CC(=O)*)c1cccc(Cl)c1; Dab = NCC[C@H](N)C(=O)O; Dap = NC[C@H](N)C(=O)O
Legend:
[1] = rat, in vivo; cited from earlier work
[2] = system: kidney; details: mouse, in vivo; cited from earlier work
[3] = assay type: in vitro ADME
Method: In the MAD phase, plasma samples for PK analysis were collected (i) on day 1—pre-dose and at 30, 60, 75, 90, 105, 120, and 150 min and at 3, 5, and 8 h following start of the first infusion; (ii) prior to the morning dose (within 10 min) on days 2, 3, 5, 7, 9, 11, and 13; and (iii) predose and 30, 75, 90, 105, 120, and 150 min and 3, 5, 8, and 12 h (day 14), 24, 36 (day 15), and 48 h (day 16) following start of the last infusion. Urine was collected for PK assessment on day 1 predose, over the intervals 0 to 4 h and 4 to 8 h after start of first infusion, and on days 14 and 15 over the intervals 0 to 4 h, 4 to 8 h, 8 to 12 h, and 12 to 24 h after start of day 14 infusion. Total 24-h urine for calculating CrCl was collected from the morning of day −1 to predose on day 1 and on days 15 and 16 over the interval from 24 to 48 h after the start of the day 14 infusion. Urine creatinine concentrations were measured using 24-h collections prior to the first dose on day 1 and over the 24 to 48 h following start of infusion of the last dose (day 14). Plasma and urine samples for SPR206 levels were analyzed using a validated liquid chromatography-tandem mass spectrometry (LC-MS/MS) method. The assay range for SPR206 was 50 to 5,000 ng/ml in plasma and 100 to 50,000 ng/ml in urine. […]

[4] = system: healthy subjects; assay: Safety and tolerability (adverse events, laboratory tests, ECG), first-in-human SAD/MAD study, 1-h i.v. infusion; assay type: in vivo
Method: This was a single-center, phase 1, randomized, double-blind, placebo-controlled, first-in-human study to assess the safety, tolerability, and PK of SPR206 following SAD and MAD administrations (Fig. 7). In the SAD phase, subjects received a single i.v. dose of SPR206, and in the MAD phase, subjects received i.v. doses of SPR206 every 8 h (q8h) over a period of 7 to 14 days. SPR206 was administered as a 1 h i.v. infusion.
In the SAD phase, healthy subjects were screened within 28 days prior to dosing and admitted to the clinical facility on day −1. A single i.v. dose of SPR206 or placebo was administered on day 1. Following completion of all safety assessments and sampling for PK analyses, subjects were discharged on day 2. A follow-up visit occurred 5 to 7 days after day 1 dosing.
In the SAD phase, subjects were randomized to one of seven cohorts consisting of 10-, 25-, 50-, 100-, 200-, 300-, and 400-mg doses of SPR206. Within each cohort, two subjects received placebo and six subjects received SPR206. Two subjects (sentinels) were dosed with SPR206 or placebo 48 h prior to the remaining subjects. The remaining six subjects were only dosed after no safety concerns were identified in the sentinel subjects. After each dose cohort had completed study drug dosing and safety evaluations, a safety monitoring group (SMG) reviewed blinded cumulative safety data (including day 5 to 7 follow-up data) to confirm the safety and tolerability of SPR206. Blood and urine samples were collected for assessment of PK parameters.
In the MAD phase, all subjects were admitted to the clinical facility on day −1. Dosing commenced on the morning of day 1. Three doses were administered daily at approximately 8 (±0.5)-hour intervals for a total of 7 consecutive days (cohorts 9 through 12) and 14 consecutive days (cohort 13). The last dose was administered on the morning of day 14. Subjects were discharged on day 16 following completion of all PK sample collection and safety assessments, and a follow-up visit occurred 12 to 14 days after the last dose.
The MAD phase began after completion of the SAD phase, and the appropriate starting dose level was established. Two subjects received placebo, and six subjects received SPR206 doses of 25, 50, 100, and 150 mg q8h for 7 days and 100 mg q8h for 14 days. In each cohort of the MAD, two subjects (sentinels) began dosing with SPR206 or placebo 72 h prior to the remaining subjects in this cohort. The remaining six subjects were only dosed after no safety concerns were identified by the principal investigator. After each MAD dose cohort had completed administration of study drug and all evaluations, the safety monitoring group reviewed blinded cumulative safety data (including the day 19 to 21 follow-up data) to confirm the safety and tolerability of the study drug. Blood and urine samples were collected to measure SPR206 drug levels to determine SPR206 PK parameters.
Safety assessments included clinical laboratory testing (hematology, coagulation, serum chemistry, urinalysis), vital signs (blood pressure, heart rate, body temperature, respiratory rate), physical examination, and triplicate 12-lead ECG to assess corrected QT interval by Fredericia (QTcF). In the SAD phase, continuous cardiac monitoring was performed from 1 h predose through 24 h postdose. Adverse events were recorded at each study visit.
Serum creatinine concentrations were measured from the clinical laboratory tests performed on days −1 and 15. Urine creatinine concentration were measured using 24 h collections prior to the first dose on day 1 and over 24 to 48 h following the start of infusion of the last dose (day 14).

[5] = human; cited from earlier work
[6] = MAD, 25 mg q8h × 7 days (n = 6)
[7] = MAD, 50 mg q8h × 7 days (n = 6)
[8] = MAD, 100 mg q8h × 7 days (n = 6)
[9] = MAD, 100 mg q8h × 14 days (n = 6)
[10] = MAD, 150 mg q8h × 7 days (n = 6)
[11] = SAD, single i.v. dose 10 mg (n = 6)
[12] = SAD, single i.v. dose 50 mg (n = 6)
[13] = SAD, single i.v. dose 100 mg (n = 6)
[14] = SAD, single i.v. dose 200 mg (n = 6)
[15] = SAD, single i.v. dose 400 mg (n = 6)

CC(C)C[C@@H]1NC(=O)[C@@H](Cc2ccccc2)NC(=O)[C@H](CCN)NC(=O)[C@@H](NC(=O)[C@H](CN)NC(=O)[C@@H](NC(=O)C[C@H](CN)c2cccc(Cl)c2)[C@@H](C)O)CCNC(=O)[C@H]([C@@H](C)O)NC(=O)[C@H](CCN)NC(=O)[C@H](CCN)NC1=O [SPR206] (X1-T[Dap][Dab][Dab][dF]L[Dab][Dab]T; lactam 3-C (inferred))
exposure in the kidney compared with PMB [1]: lower exposure in the kidney of rats | histopathological changes in the kidney [2]: no histopathological changes in the kidney | stability in urine [3]: 147 h | stability in plasma ([3]; plasma): 194 h | At least one treatment-related adverse event [4, 6]: 1 (16.7) No. (%) of subjects | TEAE Infusion site phlebitis [4, 6]: 0 No. (%) of subjects | TEAE Headache [4, 7]: 2 (33.3) No. (%) of subjects | TEAE Infusion site phlebitis [4, 7]: 1 (16.7) No. (%) of subjects | TEAE Paresthesia oral [4, 7]: 2 (33.3) No. (%) of subjects | TEAE Headache [4, 8]: 2 (33.3) No. (%) of subjects | TEAE Infusion site phlebitis [4, 8]: 1 (16.7) No. (%) of subjects | TEAE Paresthesia oral [4, 8]: 1 (16.7) No. (%) of subjects | TEAE Dizziness [4, 9]: 2 (33.3) No. (%) of subjects | TEAE Headache [4, 9]: 1 (16.7) No. (%) of subjects | TEAE Infusion site phlebitis [4, 9]: 1 (16.7) No. (%) of subjects | TEAE Paresthesia oral [4, 9]: 1 (16.7) No. (%) of subjects | TEAE Constipation [4, 10]: 1 (16.7) No. (%) of subjects | TEAE Dry mouth [4, 10]: 2 (33.3) No. (%) of subjects | TEAE Infusion site phlebitis [4, 10]: 2 (33.3) No. (%) of subjects | TEAE Paresthesia oral [4, 10]: 2 (33.3) No. (%) of subjects | TEAE leading to drug withdrawal [4, 10]: 2 (33.3) No. (%) of subjects | At least one treatment-emergent adverse event [4, 11]: 1 (16.7) No. (%) of subjects | At least one treatment-related adverse event [4, 11]: 1 (16.7) No. (%) of subjects | At least one treatment-emergent adverse event [4, 12]: 1 (16.7) No. (%) of subjects | At least one treatment-related adverse event [4, 12]: 1 (16.7) No. (%) of subjects | At least one treatment-emergent adverse event [4, 13]: 1 (16.7) No. (%) of subjects | At least one treatment-related adverse event [4, 13]: 1 (16.7) No. (%) of subjects | At least one treatment-emergent adverse event [4, 14]: 2 (33.3) No. (%) of subjects | At least one treatment-related adverse event [4, 14]: 2 (33.3) No. (%) of subjects | TEAE Diarrhea [4, 15]: 2 (33.3) No. (%) of subjects | TEAE Fatigue [4, 15]: 2 (33.3) No. (%) of subjects | TEAE Paresthesia [4, 15]: 1 (16.7) No. (%) of subjects | effect on renal function (serum creatinine and creatinine clearance) ([4]; human, in vivo): no clinically significant effect on renal function | AEs of mild severity ([4]; in vivo): 84 % of all AEs | changes in vital signs, physical examination, or ECG parameters ([4]; in vivo): no clinically significant changes | effect on liver function ([4]; in vivo): no clinically significant effect on liver function | effect on the ECG ([4]; in vivo): no effect on the ECG | serious AEs ([4]; in vivo): No serious AEs | severe AEs ([4]; in vivo): no severe AEs | subjects with paresthesia events considered nervous system disorders ([4]; in vivo): 7.4% | protein binding [5]: < 21%

Source: article PMC8448162, “Single- and Multiple-Ascending-Dose Study of the Safety, Tolerability, and Pharmacokinetics of the Polymyxin Derivative SPR206” (Antimicrobial Agents and Chemotherapy, 2021)
